The results in this text go back to US10035760B2, “Inhibitors of human immunodeficiency virus replication” (priority 2013, dated 2018).

pEC50: −log10 of the molar value. Where two headings read alike, the source gives them in different places. Where only a bound is given, the exact number is not on record here.

This experiment has as its system recombinant NL4-3 virus (Renilla luciferase) in MT-2 cells. Description: HIV cell culture assay (antiviral activity, luciferase readout in infected MT-2 cells). The class given is cell-based. On the procedure: HIV cell culture assay—MT-2 cells, 293T cells and the proviral DNA clone of NL4-3 virus were obtained from the NIH AIDS Research and Reference Reagent Program. MT-2 cells were propagated in RPMI 1640 media supplemented with 10% heat inactivated fetal bovine serum (FBS), 100 ug/ml penicillin G and up to 100 units/ml streptomycin. The 293T cells were propagated in DMEM media supplemented with 10% heat inactivated FBS, 100 ug/ml penicillin G and 100 ug/ml streptomycin. A recombinant NL4-3 proviral clone, in which a section of the nef gene was replaced with the Renilla luciferase gene, was used to make the reference virus used in these studies. The recombinant virus was prepared through transfection of the recombinant NL4-3 proviral clone into 293T cells using Transit-293 Transfection Reagent from Mirus Bio LLC (Madison, Wis.). Supernatent was harvested after 2-3 days after transfection, and the amount of virus present was titered in MT-2 cells using luciferase enzyme activity as a marker. Luciferase activity was quantitated using the EnduRen Live Cell Substrate from Promega (Madison, Wis.). Antiviral activities of compounds toward the recombinant virus were quantified by measuring luciferase activity in MT-2 cells infected for 4-5 days with the recombinant virus in the presence of serial dilutions of the compound.
The 50% effective concentration (EC50) was calculated by using the exponential form of the median effect equation where (Fa)=1/[1+(ED50/drug conc.)^m](Johnson V A, Byington R T. Infectivity Assay. In Techniques in HIV Research. ed. Aldovini A, Walker B D. 71-76. New York: Stockton Press. 1990).

[1] abbreviates: Renilla, NL43, read-out: Activity, antiviral activity class, recombinant NL4-3 Renilla luciferase virus in MT-2 cells.
[2] abbreviates: Renilla, NL43, recombinant NL4-3 Renilla luciferase virus in MT-2 cells.

Turning to `Cc1ccccc1CS(=O)(=O)NC(=O)N[C@@H](Cc1ccccc1)C(=O)N(C)c1ccc2c(c1)OCO2` [Example 104, (S)—N-(benzo[d][1,3]dioxol-5-yl)-N-methyl-2-(3-((2-methylbenzyl)sulfonyl)ureido)-3-phenylpropanamide], the pEC50 by setting is: under setting [1], 6.00 to 7.00; under setting [2], 6.21.
In the case of `Cc1nc(-c2ccc(CN(C)C(=O)[C@H](Cc3ccccc3)NC(=O)NS(=O)(=O)c3ccccc3)cc2)no1` [Example 97, (S)—N-methyl-N-(4-(5-methyl-1,2,4-oxadiazol-3-yl)benzyl)-3-phenyl-2-(3-(phenylsulfonyl)ureido)propanamide], under setting [1], the pEC50 is 5.00 to 6.00.
Same read-out and setting: as for `Cc1ccccc1C[C@H](NC(=O)NS(=O)(=O)c1ccccc1C)C(=O)N(C)c1ccc2c(c1)OCO2` [Example 53, (S)—N-(benzo[d][1,3]dioxol-5-yl)-N-methyl-3-(o-tolyl)-2-(3-(o-tolylsulfonyl)ureido)propanamide], the figure is 6.00 to 7.00.
In the case of `Cc1ccccc1S(=O)(=O)NC(=O)N[C@@H](Cc1cccc(F)c1)C(=O)N(C)c1ccc2c(c1)OCO2` [Example 85, (S)—N-(benzo[d][1,3]dioxol-5-yl)-3-(3-fluorophenyl)-N-methyl-2-(3-(o-tolylsulfonyl)ureido)propanamide], the pEC50 under setting [1] was 6.00 to 7.00.
Same read-out and setting: as for `CCN(C(=O)[C@H](Cc1ccccc1)NC(=O)NS(=O)(=O)c1ccccc1C)c1ccc2nc(C)ccc2c1` [Example CA-83, (S)—N-ethyl-N-(2-methylquinolin-6-yl)-3-phenyl-2-(3-(o-tolylsulfonyl)ureido)propanamide], the figure is over 7.00; as for `CCN(C(=O)[C@H](Cc1ccccc1)NC(=O)NS(=O)(=O)c1ccccc1C)c1ccc2ccccc2c1` [Example 177, (S)—N-ethyl-N-(naphthalen-2-yl)-3-phenyl-2-(3-(o-tolylsulfonyl)ureido)propanamide], over 7.00.
As for `CCCN(C(=O)[C@H](Cc1ccccc1)NC(=O)NS(=O)(=O)c1ccccc1C)c1ccc(Cl)c(Cl)c1` [Example 183, (S)—N-(3,4-dichlorophenyl)-3-phenyl-N-propyl-2-(3-(o-tolylsulfonyl)ureido)propanamide], the pEC50 is 6.00 to 7.00 under setting [1] and 6.51 under setting [2].
For `CN(C(=O)[C@H](Cc1ccccc1)NC(=O)NS(=O)(=O)c1ccccc1)c1ccccc1` [Example 87, (S)—N-methyl-N, 3-diphenyl-2-(3-(phenylsulfonyl)ureido)propanamide], the pEC50 under setting [1] was 6.00 to 7.00.
Turning to `Cc1ccc(N(C)C(=O)[C@H](Cc2ccccc2)NC(=O)NS(=O)(=O)c2ccccc2C)cc1` [Example CA-82, (S)—N-methyl-3-phenyl-N-(p-tolyl)-2-(3-(o-tolylsulfonyl)ureido)propanamide], the pEC50 under setting [1] is 6.00 to 7.00.
With `CCN(C(=O)[C@H](Cc1ccccc1)NC(=O)NS(=O)(=O)c1cccc(Br)c1C)c1ccc(OC)cc1` [Example 115, (S)-2-(3-((3-bromo-2-methylphenyl)sulfonyl)ureido)-N-ethyl-N-(4-methoxyphenyl)-3-phenylpropanamide], the pEC50 under setting [1] is over 7.00.
With `CN(C(=O)[C@H](Cc1ccccc1)NC(=O)NS(C)(=O)=O)c1ccc2c(c1)OCO2` [Example 44, (S)—N-(benzo[d][1,3]dioxol-5-yl)-N-methyl-2-(3-(methylsulfonyl)ureido)-3-phenylpropanamide], the pEC50 is 5.00 to 6.00 under setting [1] and 5.61 under setting [2].
For the compound `CCN(CC)CCN(C)C(=O)[C@H](Cc1ccccc1)NC(=O)NS(=O)(=O)c1ccccc1` [Example 96, (S)—N-(2-(diethylamino)ethyl)-N-methyl-3-phenyl-2-(3-(phenylsulfonyl)ureido)propanamide], the pEC50 under setting [2] was under 4.00.
For the compound `Cc1ccccc1S(=O)(=O)NC(=O)N[C@@H](Cc1ccccc1)C(=O)N(c1ccccc1)C(C)C` [Example CA-70, (S)—N-isopropyl-N, 3-diphenyl-2-(3-(o-tolylsulfonyl)ureido)propanamide], under setting [1], the pEC50 was 6.00 to 7.00.
As for `Cc1ccccc1S(=O)(=O)NC(=O)N[C@@H](Cc1ccccc1)C(=O)N(C)c1ccc2c(c1)CCC2` [Example 207, (S)—N-(2,3-dihydro-1H-inden-5-yl)-N-methyl-3-phenyl-2-(3-(o-tolylsulfonyl)ureido)propanamide], under setting [1], the pEC50 is over 7.00.
Still for that read-out and setting: with `C/C=C\c1ccccc1S(=O)(=O)NC(=O)N[C@@H](Cc1ccccc1)C(=O)N(C)c1ccc2c(c1)OCO2` [Example 137, (S,Z)—N-(benzo[d][1,3]dioxol-5-yl)-N-methyl-3-phenyl-2-(3-((2-(prop-1-en-1-yl)phenyl)sulfonyl)ureido)propanamide] the figure was 6.00 to 7.00; with `CCN(C(=O)[C@H](Cc1ccccc1)NC(=O)NS(=O)(=O)c1cccc(-c2cc3c(OC)cccc3[nH]2)c1C)c1ccc(OC)cc1` [Example 162, (S)—N-ethyl-2-(3-((3-(4-methoxy-1H-indol-2-yl)-2-methylphenyl)sulfonyl)ureido)-N-(4-methoxyphenyl)-3-phenylpropanamide], 5.00 to 6.00.
In the case of `Cc1ccccc1S(=O)(=O)NC(=O)N[C@@H](Cc1ccccc1)C(=O)N1CCc2ccccc21` [Example 174, (S)—N-((1-(indolin-1-yl)-1-oxo-3-phenylpropan-2-yl)carbamoyl)-2-methylbenzenesulfonamide], the pEC50 is, setting by setting: under setting [1], 5.00 to 6.00; under setting [2], 5.42.
Take `Cc1ccccc1S(=O)(=O)NC(=O)N[C@@H](Cc1cccc(S(=O)(=O)N2CCOCC2)c1)C(=O)N(C)c1ccc2c(c1)OCO2` [Example 81, (S)—N-(benzo[d][1,3]dioxol-5-yl)-N-methyl-3-(3-(morpholinosulfonyl)phenyl)-2-(3-(o-tolylsulfonyl)ureido)propanamide]: the pEC50 under setting [1] is 4.00 to 5.00.
As for `Cc1ccccc1S(=O)(=O)NC(=O)N[C@@H](Cc1ccccc1C(N)=O)C(=O)N(C)c1ccc2c(c1)OCO2` [Example 66, (S)-2-(3-(benzo[d][1,3]dioxol-5-yl(methyl)amino)-3-oxo-2-(3-(o-tolylsulfonyl)ureido)propyl)benzamide], the pEC50 under setting [2] was under 4.00.
In the case of `COc1ccc(S(=O)(=O)NC(=O)N[C@@H](Cc2ccccc2)C(=O)N(C)c2ccc3c(c2)OCO3)cc1` [Example 8, (S)—N-(benzo[d][1,3]dioxol-5-yl)-2-(3-((4-methoxyphenyl)sulfonyl)ureido)-N-methyl-3-phenylpropanamide], the pEC50 is, setting by setting: under setting [1], 6.00 to 7.00; under setting [2], 6.74.
In the case of `Cc1ccccc1S(=O)(=O)NC(=O)N[C@@H](Cc1ccccc1)C(=O)N1CCCc2cc(O)ccc21` [Example 173, (S)—N-((1-(6-hydroxy-3,4-dihydroquinolin-1 (2H)-yl)-1-oxo-3-phenylpropan-2-yl)carbamoyl)-2-methylbenzenesulfonamide], under setting [1], the pEC50 is 6.00 to 7.00.
As for `CN(C(=O)[C@H](Cc1ccccc1)NC(=O)NS(=O)(=O)c1ccccc1-c1cnn(C)c1)c1ccc2c(c1)OCO2` [Example 49, (S)—N-(benzo[d][1,3]dioxol-5-yl)-N-methyl-2-(3-((2-(1-methyl-1H-pyrazol-4-yl)phenyl)sulfonyl)ureido)-3-phenylpropanamide], the pEC50 under setting [2] was 5.87 and the pEC50 (read-out: Activity, antiviral activity class, recombinant NL4-3 Renilla luciferase virus in MT-2 cells) was 5.00 to 6.00.
As to `CCN(C(=O)[C@H](Cc1ccccc1)NC(=O)NS(=O)(=O)c1cccc(-c2csc3ccccc23)c1C)c1ccc(OC)cc1` [Example 161, (S)-2-(3-((3-(benzo[b]thiophen-3-yl)-2-methylphenyl)sulfonyl)ureido)-N-ethyl-N-(4-methoxyphenyl)-3-phenylpropanamide], the pEC50 under setting [1] was 5.00 to 6.00.
On to `CN(C(=O)[C@H](Cc1ccccc1)NC(=O)NS(=O)(=O)c1ccc(F)cc1F)c1ccc2c(c1)OCO2` [Example 18, (S)—N-(benzo[d][1,3]dioxol-5-yl)-2-(3-((2,4-difluorophenyl)sulfonyl)ureido)-N-methyl-3-phenylpropanamide], for which the pEC50 is 6.00 to 7.00 under setting [1] and 6.70 under setting [2].
On to `Cc1ccccc1S(=O)(=O)NC(=O)N[C@@H](Cc1cc(F)cc(F)c1)C(=O)N(C)c1ccccc1F` [Example CA-107, (S)-3-(3,5-difluorophenyl)-N-(2-fluorophenyl)-N-methyl-2-(3-(o-tolylsulfonyl)ureido)propanamide], for which, under setting [1], the pEC50 was 5.00 to 6.00.
For the compound `Cc1ccccc1S(=O)(=O)NC(=O)N[C@@H](Cc1ccc(Cl)cc1)C(=O)N(C)c1ccc2c(c1)OCO2` [Example 51, (S)—N-(benzo[d][1,3]dioxol-5-yl)-3-(4-chlorophenyl)-N-methyl-2-(3-(o-tolylsulfonyl)ureido)propanamide], the pEC50 reads like this: under setting [1], 6.00 to 7.00; under setting [2], 6.31.
As for `CN(C(=O)[C@H](Cc1ccccc1)NC(=O)NS(=O)(=O)c1cccc(Br)c1)c1ccc2c(c1)OCO2` [Example 19, (S)—N-(benzo[d][1,3]dioxol-5-yl)-2-(3-((3-bromophenyl)sulfonyl)ureido)-N-methyl-3-phenylpropanamide], the pEC50 under setting [1] was 6.00 to 7.00.
In the case of `Cc1ccccc1S(=O)(=O)NC(=O)N[C@@H](Cc1ccc(-c2ccccc2)cc1)C(=O)N(C)c1ccc2c(c1)OCO2` [Example 69, (S)-3-([1,1′-biphenyl]-4-yl)-N-(benzo[d][1,3]dioxol-5-yl)-N-methyl-2-(3-(o-tolylsulfonyl)ureido)propanamide], the pEC50 under setting [1] was 4.00 to 5.00.
